Where two headings read alike, the source gives them in different places.
How the values were obtained:
[1] = tested on: PC12 cells expressing poly(Q)103-Htt-EGFP; assay: Poly(Q) toxicity & viability analysis (cellular model of Huntington's disease); format: cell-based, rat; conditions: for M = Huntington's poly-Q toxicity attenuation: score; for K = Huntington's poly-Q toxicity attenuation: summary score
Outline: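 PC12 cells stably carrying inducible poly(Q)103-Htt-EGFP, whose induced expression causes aggregation and toxicity. Viability read 48 hrs later as ATP content by CellTiter-Glo.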

C. elegans = C. elegans lifespan assays (liquid and plate); format: in vivo, Caenorhabditis elegans; conditions: for Lifespan assay in liquid / Lifespan assay on plates / ILS at 66 µM: at 66 uM; for O = Life span- extending scores in worms: score scale 0 to 2, 4 to 6 independent trials; for M = Lifespan-extending scores in worms: summary score; for ILS at 60 µM / ILS at 66 µM: Caenorhabditis elegans
[2] = Summary score for characterization of 38 core set hits; conditions: for D = Triple resistant: 2-point score, multiplex resistance (cadmium, MMS, H2O2); for C = H2O2- & Cd-resistant: score, resistance to both H2O2 and cadmium
Method: 38 “core set” small molecules are listed and are assigned a score, based on the result for each individual characterization. From our small molecule screen for H2O2-resistance, we isolated 61 top hits. […] Specifically, a 2-point score was assigned to the most well-known and prominent longevity-related phenotypes, such as multiplex resistance, activation of FOXO3 and/or NRF2, and down-regulation of mTOR. Small molecules were also analyzed for their ability to extend C. elegans' lifespan in 4 to 6 independent trials, and the lifespan score scale is from 0 to 2: 0 for no obvious effects, 1 for lifespan extension observed in 2 trials, 2 for observed in more than 2 trials. Certain molecules appeared to have DNA-damaging effects and/or potential cell-toxicity in cultured human cells, and they receive a negative point.

LC3A/B puncta = assay: Autophagy induction analysis (LC3A/B puncta immuno-staining); format: cell-based, human; conditions: for Exp. 2, induction of LC3A/B puncta (Up), overlapped signals normalized by total number of nuclei in the fields / Exp. 2, normalized change of nuclei numbers (Less cells): 20X objective, lysosomal LAMP co-staining
Method: Immuno-staining of LC3A/B was performed, following a standard protocol. Briefly, WI-38 cells were treated with small molecules for 24 hrs, and then processed and incubated with primary antibody (Cell Signaling, rabbit anti-LC3A/B, 1:100) overnight at 4° C. Next day, samples were processed and incubated with fluorophore-conjugated secondary antibody and further incubated with DAPI dye. Images were collected on the INCell Analyzer 2000 (Experiment 1: 10× objective; Experiment 2: 20× objective) and analyzed with the Developer Toolbox. For Experiment 2, lysosomal-associated membrane protein 2 (LAMP2) was also counter-stained to identify the LC3A/B puncta that colocalize with lysosome and the data were analyzed by the MetaXpress software (Molecular Devices, version 5.1). The intensity of total (Exp. 1) or LAMP2-colocalized LC3A/B puncta (Exp. 2) was normalized the total numbers nuclei in the fields.
These assays were performed, following the same procedures to analyze DNA-damage markers. WI-38 cells were incubated with small molecules for 24 hrs, and then processed and incubated with primary antibody (rabbit anti-LC3A/B, 1:100) overnight at 4 C. The next day, samples were processed and incubated with fluorophore-conjugated secondary antibody and further incubated with DAPI dye. Images were collected on an INCell Analyzer 2000 and analyzed with the Developer software. Total LC3A/B puncta intensity was normalized the total numbers of DAPI-positive nuclei.

[3] = Exp. 1, 10 μM, 10X objective, WI-38 cells
[4] = 60 μM, in liquid, wild type, with FuDR, 1.0 × 10^9 bacteria/ml, read-out: relative change of mean lifespan vs control, Trial 1
[5] = 60 μM, in liquid, wild type, with FuDR, 2.5 × 10^9 bacteria/ml, read-out: relative change of mean lifespan vs control, Trial 2
[6] = 60 μM, on plate, CF512 temperature-sensitive sterile animals, without FuDR, 2.0 × 10^10 bacteria/ml, read-out: relative change of mean lifespan vs control, Trial 3
[7] = Assay 2(z), 1.0 × 10^9 bacteria/ml, wild type + FuDR (2012 July), read-out: Lifespan assay in liquid
[8] = Assay 3(aa), 2.5 × 10^9 bacteria/ml, wild type + FuDR, read-out: Lifespan assay in liquid
[9] = Assay 4(ab), 2.0 × 10^10 bacteria/ml, CF512 worms, no FuDR, read-out: Lifespan assay on plates

| SMILES | M = Huntington's poly-Q toxicity attenuation [1] | K = Huntington's poly-Q toxicity attenuation [1] | O = Life span- extending scores in worms (C. elegans) | M = Lifespan-extending scores in worms (C. elegans) | D = Triple resistant [2] | C = H2O2- & Cd-resistant [2] | S = Sum of Negative scores ([2]; sum of columns Q and R) | H = Potential Autophagy Induction (LC3A/B puncta; score) | H = Potential Autophagy Induction (LC3A/B puncta; summary score) | ILS at 60 µM (C. elegans; [4]) [%] | ILS at 60 µM (C. elegans; [5]) [%] | ILS at 60 µM (C. elegans; [6]) [%] | ILS at 66 µM (C. elegans; [7]) [%] | ILS at 66 µM (C. elegans; [8]) [%] | ILS at 66 µM (C. elegans; [9]) [%] | S = Sum of Negative scores ([2]; human) | further results |
| --- | --- | --- | --- | --- | --- | --- | --- | --- | --- | --- | --- | --- | --- | --- | --- | --- | --- |
| COc1cc2c(no[n+]2[O-])n2nnnc12 [O11] | 0 | 0 | 1 (1 for lifespan extension observed in 2 trials) | 1 (1 for lifespan extension observed in 2 trials) | 0 | 1 | 1 | 1 | 1 | – | – | – | – | – | – | – | relative change of mean lifespan vs control, Trial 1 (C. elegans; 60 μM, in liquid, wild type, with FuDR, 1.0 × 10^9 bacteria/ml): +14.9%; relative change of mean lifespan vs control, Trial 2 (C. elegans; 60 μM, in liquid, wild type, with FuDR, 2.5 × 10^9 bacteria/ml): +6.0%; relative change of mean lifespan vs control, Trial 4 (C. elegans; 60 μM, on plate, CF512 temperature-sensitive sterile animals, without FuDR, 1.0 × 10^11 bacteria/ml): +9.0%; relative change of mean lifespan vs control, Trial 3 (C. elegans; 60 μM, on plate, CF512 temperature-sensitive sterile animals, without FuDR, 2.0 × 10^10 bacteria/ml): +21.0%; Lifespan assay in liquid (C. elegans; Assay 2(z), 1.0 × 10^9 bacteria/ml, wild type + FuDR (2012 July)): +14.9%; Lifespan assay in liquid (C. elegans; Assay 3(aa), 2.5 × 10^9 bacteria/ml, wild type + FuDR): +6.0%; Lifespan assay on plates (C. elegans; Assay 4(ab), 2.0 × 10^10 bacteria/ml, CF512 worms, no FuDR): +21.0%; Lifespan assay on plates (C. elegans; Assay 5(ac), 1.0 × 10^11 bacteria/ml, CF512 worms, no FuDR): +9.0%; Assay 15: Potential autophagy induction by LC3A/B puncta assays (LC3A/B puncta; 10 uM & 20 uM, YES/NO): YES; Exp. 1, induction of LC3A/B puncta (Up), total intensity normalized by total number of nuclei in the fields (LC3A/B puncta; [3]): p < 0.01; Up, 315%,; Exp. 1, normalized change of nuclei numbers (Less cells) (LC3A/B puncta; [3]): Less cells, 64%,; Exp. 2, induction of LC3A/B puncta (Up), overlapped signals normalized by total number of nuclei in the fields (LC3A/B puncta; Exp. 2, 10 μM, WI-38 cells): p < 0.001; Up, 193%,; Exp. 2, normalized change of nuclei numbers (Less cells) (LC3A/B puncta; Exp. 2, 10 μM, WI-38 cells): Less cells, 71%,; Exp. 2, induction of LC3A/B puncta (Up), overlapped signals normalized by total number of nuclei in the fields (LC3A/B puncta; Exp. 2, 20 μM, WI-38 cells): p < 0.001; Up, 159%,; Exp. 2, normalized change of nuclei numbers (Less cells) (LC3A/B puncta; Exp. 2, 20 μM, WI-38 cells): Less cells, 69%, |
| O=C1NCCCc2cc(Cl)sc21 [O1] | 0 | 0 | 0 | 0 | 0 | 1 | – | 0 | 0 | 1.8 | -1.7 | 22.1 | 1.8 | -1.7 | 22.1 | 0 | ILS at 60 µM (C. elegans; 60 μM, on plate, CF512 temperature-sensitive sterile animals, without FuDR, 1.0 × 10^11 bacteria/ml, read-out: relative change of mean lifespan vs control, Trial 4): -2.2%; ILS at 66 µM (C. elegans; Assay 5(ac), 1.0 × 10^11 bacteria/ml, CF512 worms, no FuDR, read-out: Lifespan assay on plates): -2.2% |
| COc1ccc(C(=O)/C=C/c2cccc(Cl)c2)c(OC)c1 [Gr-4C] | 0 | 0 | 0 | 0 | 0 | 0 | 0 | 0 | 0 | -14.9 | 3.1 | -1.7 | -14.9 | 3.1 | -1.7 | – | – |
| CCc1ccc(Oc2nc3ccccn3c(=O)c2/C=C(\C#N)C(=O)NC2CCCCC2)cc1 [Gr-5A] | 0 | 0 | 0 | 0 | 0 | 1 | – | 0 | 0 | 25.8 | -1.4 | -8.3 | 25.8 | -1.4 | -8.3 | 0 | – |
| Cc1ccc(S(=O)(=O)Nc2cccc3cccnc23)cc1 [Gr-3B] | 0 | 0 | 2 (2 for observed in more than 2 trials) | 2 (2 for observed in more than 2 trials) | 0 | 0 | – | 0 | 0 | 13.7 | 12.5 | 8.1 | 13.7 | 12.5 | 8.1 | 0 | Extension of C. elegans' lifespan (qualitative) (C. elegans; in at least 3 to 4 trials, group range ~10% to ~50%): could extend animal's lifespan |
| COc1ccc(C(=O)/C=C/c2ccc(F)cc2)c(OC)c1 [Gr-4A] | 0 | 0 | 0 | 0 | 0 | 1 | 0 | 0 | 0 | -21.4 | 1.2 | -0.1 | -21.4 | 1.2 | -0.1 | – | – |
| COC(=O)CCc1sc2c(c1[N+](=O)[O-])NC(=O)CCC2 [O20] | 0 | 0 | 1 (1 for lifespan extension observed in 2 trials) | 1 (1 for lifespan extension observed in 2 trials) | 0 | 1 | – | 0 | 0 | 18.8 | 3.4 | 11.3 | 18.8 | 3.4 | 11.3 | 0 | – |

Source: US11413278B2, “Compounds and methods for promoting stress resistance” (priority 2015, dated 2022)
